Consider 18 compounds from patent US20260125370A1, “SULFOXIMINE COMPOUNDS AS HISTONE DEACETYLASE 6 INHIBITOR, AND PHARMACEUTICAL COMPOSITION COMPRISING THE SAME” (CHONG KUN DANG PHARMACEUTICAL CORP., priority 2022, published 2026).

One test concerns the target T1, human recombinant HDAC1 (Homo sapiens, UniProt Q13547).
T1 construct: purchased Enzolifesciences BML-SE456
In words: HDAC1 enzyme activity inhibition (HDAC1 Fluorimetric Drug Discovery Assay Kit, in vitro). In kind it is biochemical. The note with it: samples at 100, 1000 and 10000 nM. On the procedure: (§1) A HDAC enzyme inhibitory capacity of a test material was measured by using HDAC1 Fluorimetric Drug Discovery Assay Kit (Enzolifesciences: BML-AK511) and HDAC6 human recombinant (Calbiochem: 382180). For a HDAC1 assay, samples were treated at a concentration of 100, 1000 and 10000 nM. For a HDAC6 assay, samples were treated at a concentration of 0.1, 1, 10, 100 and 1000 nM.
(§2) For the test on the HDAC1 enzyme activity, human recombinant HDAC1 (BML-SE456) was used as a zymogen and Fluor de Lys®-SIRT1 (BNL-KI177) was used as a substrate. A 5-fold dilution of the compound was divided into a 96-well plate, after which 0.3 μg of the enzyme and […] of the substrate were inserted into each well and subjected to reaction at 37° C. for 60 minutes, such that Fluor de Lys® Developer II (BML-K1176) was inserted thereinto and subjected to reaction for 30 minutes and finished. After that, a fluorescence value (Ex 360, Em 460) was measured with a multi-plate reader (FlexStation 3, Molecular Device). An experiment on HDAC6 enzyme was conducted in accordance with the same protocol as in the HDAC1 enzyme activity test method by using human recombinant HDAC6 (382180) of Calbiochem Inc. For final result values, each IC50 value was calculated with GraphPad Prism 4.0 program.

The target in the next test is T2, human recombinant HDAC6 (Homo sapiens, UniProt Q9UBN7).
T2 construct: purchased Calbiochem 382180
T2 sequence (Q9UBN7 1-1215): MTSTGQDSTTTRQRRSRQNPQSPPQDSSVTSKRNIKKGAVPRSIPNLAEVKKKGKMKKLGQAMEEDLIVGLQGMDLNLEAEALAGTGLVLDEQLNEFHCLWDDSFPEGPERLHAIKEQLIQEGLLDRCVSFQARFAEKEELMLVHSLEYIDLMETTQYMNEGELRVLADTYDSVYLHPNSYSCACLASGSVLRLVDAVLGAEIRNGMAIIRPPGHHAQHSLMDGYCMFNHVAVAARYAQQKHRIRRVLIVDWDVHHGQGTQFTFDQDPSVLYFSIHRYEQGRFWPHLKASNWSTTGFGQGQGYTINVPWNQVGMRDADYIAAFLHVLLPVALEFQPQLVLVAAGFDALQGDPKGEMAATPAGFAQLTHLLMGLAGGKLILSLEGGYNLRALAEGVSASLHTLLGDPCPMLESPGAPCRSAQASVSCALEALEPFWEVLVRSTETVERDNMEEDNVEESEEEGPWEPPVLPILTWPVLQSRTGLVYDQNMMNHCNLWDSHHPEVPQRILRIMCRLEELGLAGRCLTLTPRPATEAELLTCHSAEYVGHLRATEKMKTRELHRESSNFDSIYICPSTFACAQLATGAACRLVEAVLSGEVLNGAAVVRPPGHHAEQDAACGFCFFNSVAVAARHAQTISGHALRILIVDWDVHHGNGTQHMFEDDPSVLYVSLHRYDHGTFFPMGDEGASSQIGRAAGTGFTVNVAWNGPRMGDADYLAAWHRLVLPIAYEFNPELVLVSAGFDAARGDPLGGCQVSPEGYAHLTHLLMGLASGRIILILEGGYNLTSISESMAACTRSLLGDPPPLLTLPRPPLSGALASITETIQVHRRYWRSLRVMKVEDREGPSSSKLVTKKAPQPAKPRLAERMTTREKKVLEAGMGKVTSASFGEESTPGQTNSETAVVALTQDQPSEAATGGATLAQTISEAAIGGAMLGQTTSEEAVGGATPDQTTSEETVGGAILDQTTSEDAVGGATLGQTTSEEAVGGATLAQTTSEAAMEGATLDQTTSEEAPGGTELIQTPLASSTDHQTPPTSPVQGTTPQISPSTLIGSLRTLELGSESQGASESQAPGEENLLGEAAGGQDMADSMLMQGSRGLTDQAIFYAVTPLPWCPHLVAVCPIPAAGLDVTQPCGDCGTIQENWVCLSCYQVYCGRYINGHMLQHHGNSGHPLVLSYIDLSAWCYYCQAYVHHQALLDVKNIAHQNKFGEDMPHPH
The test can be described thus: HDAC6 enzyme activity inhibition (fluorimetric, in vitro). In kind it is biochemical. The note with it: samples at 0.1, 1, 10, 100 and 1000 nM. On the procedure:
as §1, §2

Molecules are shown by their SMILES.

T1 sequence (Q13547 whole entry): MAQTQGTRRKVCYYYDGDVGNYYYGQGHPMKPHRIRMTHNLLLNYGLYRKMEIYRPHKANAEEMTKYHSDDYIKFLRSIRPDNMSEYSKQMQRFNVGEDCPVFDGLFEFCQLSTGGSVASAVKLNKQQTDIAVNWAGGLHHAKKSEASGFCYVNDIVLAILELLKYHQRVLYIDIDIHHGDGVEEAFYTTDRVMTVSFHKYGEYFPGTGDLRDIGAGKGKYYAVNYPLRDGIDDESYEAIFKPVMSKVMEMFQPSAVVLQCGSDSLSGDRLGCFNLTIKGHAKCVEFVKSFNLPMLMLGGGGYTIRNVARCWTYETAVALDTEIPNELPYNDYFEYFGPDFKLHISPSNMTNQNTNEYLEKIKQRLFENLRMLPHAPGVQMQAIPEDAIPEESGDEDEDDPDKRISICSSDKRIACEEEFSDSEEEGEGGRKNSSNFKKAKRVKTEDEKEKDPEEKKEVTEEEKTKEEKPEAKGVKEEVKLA

With `CC1CN(C(=O)N(Cc2ccc(-c3nnc(C(F)F)o3)cc2F)c2ccc(F)cc2)CC(C)S1(=N)=O` (stereo not drawn) [Compound 65, N-[[4-[5-(difluoromethyl)-1,3,4-oxadiazol-2-yl]-2-fluoro-phenyl]methyl]-N-(4-fluorophenyl)-1-imino-2,6-dimethyl-1-oxo-1,4-thiazinan-4-carboxamide], the IC50 was above 10000 nM on human recombinant HDAC1 and 105 nM at human recombinant HDAC6.
For the compound `COc1cccc(N(Cc2ccc(-c3nnc(C(F)F)o3)cc2F)S(=O)(=O)N2CCS(=N)(=O)CC2)c1` [Compound 73, N-[[4-[5-(difluoromethyl)-1,3,4-oxadiazol-2-yl]-2-fluoro-phenyl]methyl]-1-imino-N-(3-methoxyphenyl)-1-oxo-1,4-thiazinan-4-sulfonamide], the IC50 on human recombinant HDAC1 was above 10000 nM; on human recombinant HDAC6, 72.5 nM.
The like results for `N=S1(=O)CCN(C(=O)N(Cc2ccc(-c3nnc(C(F)F)o3)cc2F)c2cccc(-n3cccc3)c2)CC1` [Compound 34, N-(3-(1H-pyrrol-1-yl)phenyl)-N-(4-(5-(difluoromethyl)-1,3,4-oxadiazol-2-y1)-2-fluorobenzyl)-1-iminothiomorpholin-4-carboxamide 1-oxide] were, in that order, above 10000 nM and 91.5 nM.
The like results for `N=S1(=O)CCN(S(=O)(=O)N(Cc2ccc(-c3nnc(C(F)F)o3)cc2F)c2cccc(Cl)c2)CC1` [Compound 70, N-(3-chlorophenyl)-N-[[4-[5-(difluoromethyl)-1,3,4-oxadiazol-2-yl]-2-fluoro-phenyl]methyl]-1-imino-1-oxo-1,4-thiazinan-4-sulfonamide] were, in that order, above 10000 nM and 52.2 nM.
The like results for `N=S1(=O)CCN(C(=O)N(Cc2ccc(-c3nnc(C(F)F)o3)cc2F)c2cccc(-c3cccnc3)c2)CC1` [Compound 47, N-(4-(5-(difluoromethyl)-1,3,4-oxadiazol-2-yl)-2-fluorobenzyl)-1-imino-N-(3-(pyridin-3-yl)phenyl)thiomorpholin-4-carboxamide 1-oxide] were, in that order, above 10000 nM and 185 nM.
With `N=S1(=O)CCN(C(=O)N(Cc2ccc(-c3nnc(C(F)F)o3)cc2F)c2ccc(F)c(F)c2)CC1` [Compound 6, N-(4-(5-(difluoromethyl)-1,3,4-oxadiazol-2-yl)-2-fluorobenzyl)-N-(3,4-difluorophenyl)-1-iminothiomorpholin-4-carboxamide 1-oxide], the results for the IC50 at human recombinant HDAC1 and at human recombinant HDAC6 were above 10000 nM and 50 nM, respectively.
The like results for `N=S1(=O)CCN(C(=O)N(Cc2cnc(-c3nnc(C(F)F)o3)cn2)c2cccc(F)c2)CC1` [Compound 81, N-[[5-[5-(difluoromethyl)-1,3,4-oxadiazol-2-yl]pyrazin-2-yl]methyl]-N-(3-fluorophenyl)-1-imino-1-oxo-1,4-thiazinan-4-carboxamide] were, in that order, above 10000 nM and 241 nM.
Turning to `COc1ccccc1N(Cc1ccc(-c2nnc(C(F)F)o2)cc1F)C(=O)N1CCS(=N)(=O)CC1` [Compound 25, N-(4-(5-(difluoromethyl)-1,3,4-oxadiazol-2-y1)-2-fluorobenzyl)-1-imino-N-(2-methoxyphenyl)thiomorpholin-4-carboxamide 1-oxide], the IC50 on human recombinant HDAC1 is above 10000 nM; on human recombinant HDAC6 it was 141 nM.
`N=S1(=O)CCN(C(=O)N(Cc2ccc(-c3nnc(C(F)F)o3)cn2)c2cc(F)ccc2F)CC1` [Compound 45, N-((5-(5-(difluoromethyl)-1,3,4-oxadiazol-2-yl)pyridin-2-yl)methyl)-N-(2,5-difluorophenyl)-1-iminothiomorpholin-4-carboxamide 1-oxide]: the values for the IC50 on human recombinant HDAC1 and at human recombinant HDAC6 were above 10000 nM and 63.6 nM, respectively.
For `CC1CN(C(=O)N(Cc2ccc(-c3nnc(C(F)F)o3)cn2)c2ccc(F)cc2)CC(C)S1(=N)=O` (stereo not drawn) [Compound 64, N-[[5-[5-(difluoromethyl)-1,3,4-oxadiazol-2-yl]-2-pyridyl]methyl]-N-(4-fluorophenyl)-1-imino-2,6-dimethyl-1-oxo-1,4-thiazinan-4-carboxamide], the figures for the half-maximal inhibitory concentration (IC50) at human recombinant HDAC1 and on human recombinant HDAC6 were above 10000 nM and 123 nM, respectively.
The like results for `N=S1(=O)CCN(S(=O)(=O)N(Cc2ccc(-c3nnc(C(F)F)o3)cn2)c2cccc(F)c2)CC1` [Compound 36, N-((5-(5-(difluoromethyl)-1,3,4-oxadiazol-2-yl)pyridin-2-yl)methyl)-N-(3-fluorophenyl)-1-iminothiomorpholin-4-sulfonamide 1-oxide] were, in that order, above 10000 nM and 30.8 nM.
Take `N=S1(=O)CCN(C(=O)N(Cc2ccc(-c3nnc(C(F)F)o3)cc2F)c2ccc3c(c2)CCO3)CC1` [Compound 22, N-(4-(5-(difluoromethyl)-1,3,4-oxadiazol-2-y1)-2-fluorobenzyl)-N-(2,3-dihydrobenzofuran-5-yl)-1-iminothiomorpholin-4-carboxamide 1-oxide]: the IC50 on human recombinant HDAC1 was above 10000 nM; on human recombinant HDAC6, 75.2 nM.
The like results for `N=S1(=O)CCN(c2c(N(Cc3ncc(-c4nnc(C(F)F)o4)cc3F)c3ccccc3)c(=O)c2=O)CC1` [Compound 61, 3-(((5-(5-(difluoromethyl)-1,3,4-oxadiazol-2-yl)-3-fluoropyridin-2-yl)methyl)(phenyl)amino)-4-(1-imino-1-oxidothiomorpholino)cyclobut-3-en-1,2-dione] were, in that order, above 10000 nM and 29.8 nM.
Turning to `N=S1(=O)CCN(C(=O)N(Cc2ccc(-c3nnc(C(F)F)o3)cc2F)c2cccnc2)CC1` [Compound 66, N-[[4-[5-(difluoromethyl)-1,3,4-oxadiazol-2-yl]-2-fluoro-phenyl]methyl]-1-imino-1-oxo-N-(3-pyridyl)-1,4-thiazinan-4-carboxamide], the half-maximal inhibitory concentration (IC50) was above 10000 nM on human recombinant HDAC1 and 90.2 nM at human recombinant HDAC6.
The like results for `CS(=O)(=O)N=S1(=O)CCN(C(=O)N(Cc2ccc(-c3nnc(C(F)F)o3)cn2)c2ccccc2)CC1` [Compound 53, N-((5-(5-(difluoromethyl)-1,3,4-oxadiazol-2-yl)pyridin-2-yl)methyl)-1-((methylsulfonyl)imino)-N-phenylthiomorpholin-4-carboxamide 1-oxide] were, in that order, above 10000 nM and 40.6 nM.
The like results for `N=S1(=O)CCN(C(=O)N(Cc2ccc(-c3nnc(C(F)(F)F)o3)cn2)c2ccccc2)CC1` [Compound 9, 1-imino-N-phenyl-N-((5-(5-(trifluoromethyl)-1,3,4-oxadiazol-2-yl)pyridin-2-yl)methyl)thiomorpholine-4-carboxamide 1-oxide] were, in that order, above 10000 nM and 280 nM.
In the case of `CS(=N)(=O)C1CCN(C(=O)N(Cc2ccc(-c3nnc(C(F)F)o3)cc2F)c2ccccc2)CC1` (stereo not drawn) [Compound 75, N-[[4-[5-(difluoromethyl)-1,3,4-oxadiazol-2-yl]-2-fluoro-phenyl]methyl]-4-(methylsulfonimidoyl)-N-phenyl-piperidin-1-carboxamide], the IC50 on human recombinant HDAC1 is above 10000 nM; on human recombinant HDAC6, 96.3 nM.
The like results for `CS(=O)(=O)N=S1(=O)CCN(C(=O)N(Cc2ccc(-c3nnc(C(F)F)o3)cc2F)c2ccccc2)CC1` [Compound 37, N-(4-(5-(difluoromethyl)-1,3,4-oxadiazol-2-yl)-2-fluorobenzyl)-1-((methylsulfonyl)imino)-N-phenylthiomorpholin-4-carboxamide 1-oxide] were, in that order, above 10000 nM and 61.3 nM.
